Assay results reported in patent US8168651B2, “Protein kinase modulators” (Cylene Pharmaceuticals, Inc., priority 2008, dated 2012).

Columns and labels:
Test in all cases: Standardized radiometric kinase assays, percentage of activity at 0.5 μM;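 note: Read-out is ³³P-labelled substrate protein phosphorylated by each kinase, captured on filters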
[1] = biological target: each individual kinase of the panel (Homo sapiens, UniProt O14757); details: for % Activity: CHK1(h)
[2] = biological target: each individual kinase of the panel (Homo sapiens, UniProt O75676); details: for % Activity: MSK2(h)
[3] = biological target: each individual kinase of the panel (Homo sapiens, UniProt P00533); details: for % Activity: EGFR(h)
Sequence of each individual kinase of the panel (Homo sapiens, UniProt P00533) (P00533 25-1210 limits assumed): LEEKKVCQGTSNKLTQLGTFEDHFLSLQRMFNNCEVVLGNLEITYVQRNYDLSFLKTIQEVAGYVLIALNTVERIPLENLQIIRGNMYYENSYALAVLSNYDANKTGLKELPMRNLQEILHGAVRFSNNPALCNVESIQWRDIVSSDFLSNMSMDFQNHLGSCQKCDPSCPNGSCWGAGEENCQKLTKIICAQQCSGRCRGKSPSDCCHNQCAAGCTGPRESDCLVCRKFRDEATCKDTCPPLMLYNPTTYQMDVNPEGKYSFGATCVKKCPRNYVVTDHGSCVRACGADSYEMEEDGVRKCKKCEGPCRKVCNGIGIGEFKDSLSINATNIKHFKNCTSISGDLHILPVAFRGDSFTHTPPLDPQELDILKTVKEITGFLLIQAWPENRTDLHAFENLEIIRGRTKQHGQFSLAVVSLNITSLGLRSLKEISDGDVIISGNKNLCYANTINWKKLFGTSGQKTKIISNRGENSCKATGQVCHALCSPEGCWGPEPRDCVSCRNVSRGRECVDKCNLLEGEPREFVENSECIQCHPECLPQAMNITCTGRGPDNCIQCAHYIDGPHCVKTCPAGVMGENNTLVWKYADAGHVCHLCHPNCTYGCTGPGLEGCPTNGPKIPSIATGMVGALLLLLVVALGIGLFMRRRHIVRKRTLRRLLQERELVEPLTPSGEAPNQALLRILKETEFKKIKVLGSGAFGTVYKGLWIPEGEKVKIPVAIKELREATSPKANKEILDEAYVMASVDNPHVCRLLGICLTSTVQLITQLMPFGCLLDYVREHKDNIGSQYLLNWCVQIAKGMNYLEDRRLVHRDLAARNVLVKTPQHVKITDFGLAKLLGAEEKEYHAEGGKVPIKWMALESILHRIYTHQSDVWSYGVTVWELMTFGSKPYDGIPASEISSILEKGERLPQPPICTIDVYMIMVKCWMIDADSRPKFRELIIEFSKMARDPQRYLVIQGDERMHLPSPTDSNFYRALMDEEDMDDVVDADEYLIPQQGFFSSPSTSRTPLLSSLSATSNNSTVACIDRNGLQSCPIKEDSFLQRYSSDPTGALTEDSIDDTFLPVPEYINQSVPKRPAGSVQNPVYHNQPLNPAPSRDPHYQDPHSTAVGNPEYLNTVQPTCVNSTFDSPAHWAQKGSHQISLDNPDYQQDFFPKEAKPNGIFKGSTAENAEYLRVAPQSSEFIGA

[4] = biological target: each individual kinase of the panel (Homo sapiens, UniProt P06493); details: for % Activity: CDK1/cyclinB(h)
[5] = biological target: each individual kinase of the panel (Homo sapiens, UniProt P07332); details: for % Activity: Fes(h)
[6] = biological target: each individual kinase of the panel (Homo sapiens, UniProt P07948); details: for % Activity: Lyn(h)
[7] = biological target: each individual kinase of the panel (Homo sapiens, UniProt P07949); details: for % Activity: Ret(h)
[8] = biological target: each individual kinase of the panel (Homo sapiens, UniProt P11362); details: for % Activity: FGFR1(h)
[9] = biological target: each individual kinase of the panel (Homo sapiens, UniProt P16234, D842V); details: for % Activity: PDGFRα(D842V)(h)
[10] = biological target: each individual kinase of the panel (Homo sapiens, UniProt P17612); details: for % Activity: PKA(h)
[11] = biological target: each individual kinase of the panel (Homo sapiens, UniProt P31749); details: for % Activity: PKBα(h)
[12] = biological target: each individual kinase of the panel (Homo sapiens, UniProt P35968); details: for % Activity: KDR(h)
Sequence of each individual kinase of the panel (Homo sapiens, UniProt P35968) (P35968 20-1356 limits assumed): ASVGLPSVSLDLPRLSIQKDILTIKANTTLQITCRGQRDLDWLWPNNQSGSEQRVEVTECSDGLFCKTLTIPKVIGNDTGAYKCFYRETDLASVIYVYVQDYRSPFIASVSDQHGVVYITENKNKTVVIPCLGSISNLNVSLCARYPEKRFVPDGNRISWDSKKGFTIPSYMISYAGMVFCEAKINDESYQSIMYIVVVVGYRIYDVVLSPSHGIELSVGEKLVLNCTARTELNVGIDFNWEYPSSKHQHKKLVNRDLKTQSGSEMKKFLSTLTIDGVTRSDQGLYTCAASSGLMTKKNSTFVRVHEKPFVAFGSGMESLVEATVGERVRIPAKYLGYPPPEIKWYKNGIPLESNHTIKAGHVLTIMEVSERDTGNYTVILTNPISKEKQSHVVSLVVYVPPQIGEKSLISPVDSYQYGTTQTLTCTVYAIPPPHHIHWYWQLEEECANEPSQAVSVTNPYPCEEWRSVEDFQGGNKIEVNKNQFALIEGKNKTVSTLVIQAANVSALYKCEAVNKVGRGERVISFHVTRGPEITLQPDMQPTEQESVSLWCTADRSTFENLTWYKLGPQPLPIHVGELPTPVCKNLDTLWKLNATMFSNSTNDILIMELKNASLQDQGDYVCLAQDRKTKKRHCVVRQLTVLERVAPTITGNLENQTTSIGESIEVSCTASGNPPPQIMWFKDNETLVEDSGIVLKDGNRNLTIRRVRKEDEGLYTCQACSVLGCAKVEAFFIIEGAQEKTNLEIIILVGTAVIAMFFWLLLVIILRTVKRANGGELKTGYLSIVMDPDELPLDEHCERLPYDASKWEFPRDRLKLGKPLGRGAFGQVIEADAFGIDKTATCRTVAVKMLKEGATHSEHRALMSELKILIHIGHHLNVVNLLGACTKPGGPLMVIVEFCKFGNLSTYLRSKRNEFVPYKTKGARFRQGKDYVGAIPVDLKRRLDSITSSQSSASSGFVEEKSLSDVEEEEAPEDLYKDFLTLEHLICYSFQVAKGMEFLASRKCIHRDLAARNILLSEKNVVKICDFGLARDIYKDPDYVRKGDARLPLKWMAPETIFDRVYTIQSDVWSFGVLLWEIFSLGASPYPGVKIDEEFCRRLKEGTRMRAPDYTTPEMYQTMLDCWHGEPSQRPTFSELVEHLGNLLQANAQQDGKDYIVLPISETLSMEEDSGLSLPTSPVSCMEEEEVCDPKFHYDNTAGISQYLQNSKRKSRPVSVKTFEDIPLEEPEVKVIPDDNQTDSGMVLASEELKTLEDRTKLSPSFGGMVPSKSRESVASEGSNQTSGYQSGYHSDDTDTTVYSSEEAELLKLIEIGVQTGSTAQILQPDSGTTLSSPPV

[13] = biological target: each individual kinase of the panel (Homo sapiens, UniProt P36888, D835Y); details: for % Activity: Flt3(D835Y)(h)
[14] = biological target: each individual kinase of the panel (Homo sapiens, UniProt P42345); details: for % Activity: mTOR(h)
[15] = biological target: each individual kinase of the panel (Homo sapiens, UniProt P54760); details: for % Activity: EphB4(h)
Sequence of each individual kinase of the panel (Homo sapiens, UniProt P54760) (P54760 16-987 limits assumed): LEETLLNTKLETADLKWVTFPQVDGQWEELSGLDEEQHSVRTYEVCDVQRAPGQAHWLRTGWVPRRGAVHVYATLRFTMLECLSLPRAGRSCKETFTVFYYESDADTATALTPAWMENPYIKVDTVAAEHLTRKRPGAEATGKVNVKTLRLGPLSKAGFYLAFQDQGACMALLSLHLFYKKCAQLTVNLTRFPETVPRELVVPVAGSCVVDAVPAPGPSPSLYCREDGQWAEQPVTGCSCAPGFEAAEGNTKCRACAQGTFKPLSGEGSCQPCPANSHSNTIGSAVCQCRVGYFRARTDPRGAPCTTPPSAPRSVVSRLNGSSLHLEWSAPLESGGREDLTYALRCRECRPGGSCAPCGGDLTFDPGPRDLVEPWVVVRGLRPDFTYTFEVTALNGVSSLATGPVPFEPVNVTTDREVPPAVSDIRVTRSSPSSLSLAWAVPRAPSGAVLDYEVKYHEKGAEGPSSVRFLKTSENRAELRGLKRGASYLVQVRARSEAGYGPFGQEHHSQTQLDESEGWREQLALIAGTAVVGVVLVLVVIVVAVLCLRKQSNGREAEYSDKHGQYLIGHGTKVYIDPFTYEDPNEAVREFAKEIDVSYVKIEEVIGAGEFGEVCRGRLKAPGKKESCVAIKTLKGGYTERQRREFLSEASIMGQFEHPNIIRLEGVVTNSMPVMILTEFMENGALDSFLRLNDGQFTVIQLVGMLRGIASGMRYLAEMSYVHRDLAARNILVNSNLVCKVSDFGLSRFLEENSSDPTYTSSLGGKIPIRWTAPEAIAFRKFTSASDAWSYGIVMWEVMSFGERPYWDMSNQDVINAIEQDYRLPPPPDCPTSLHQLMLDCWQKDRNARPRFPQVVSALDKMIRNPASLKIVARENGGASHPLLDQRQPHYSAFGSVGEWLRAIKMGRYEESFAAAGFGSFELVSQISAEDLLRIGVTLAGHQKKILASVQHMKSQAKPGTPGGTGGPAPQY

[16] = biological target: each individual kinase of the panel (Homo sapiens, UniProt P78368); details: for % Activity: CK1γ2(h)
[17] = biological target: each individual kinase of the panel (Homo sapiens, UniProt Q12866); details: for % Activity: Mer(h)
[18] = biological target: each individual kinase of the panel (Homo sapiens, UniProt Q13043); details: for % Activity: MST1(h)
[19] = biological target: each individual kinase of the panel (Homo sapiens, UniProt Q13464); details: for % Activity: ROCK-I(h)
Sequence of each individual kinase of the panel (Homo sapiens, UniProt Q13464) (Q13464 2-1354 limits assumed): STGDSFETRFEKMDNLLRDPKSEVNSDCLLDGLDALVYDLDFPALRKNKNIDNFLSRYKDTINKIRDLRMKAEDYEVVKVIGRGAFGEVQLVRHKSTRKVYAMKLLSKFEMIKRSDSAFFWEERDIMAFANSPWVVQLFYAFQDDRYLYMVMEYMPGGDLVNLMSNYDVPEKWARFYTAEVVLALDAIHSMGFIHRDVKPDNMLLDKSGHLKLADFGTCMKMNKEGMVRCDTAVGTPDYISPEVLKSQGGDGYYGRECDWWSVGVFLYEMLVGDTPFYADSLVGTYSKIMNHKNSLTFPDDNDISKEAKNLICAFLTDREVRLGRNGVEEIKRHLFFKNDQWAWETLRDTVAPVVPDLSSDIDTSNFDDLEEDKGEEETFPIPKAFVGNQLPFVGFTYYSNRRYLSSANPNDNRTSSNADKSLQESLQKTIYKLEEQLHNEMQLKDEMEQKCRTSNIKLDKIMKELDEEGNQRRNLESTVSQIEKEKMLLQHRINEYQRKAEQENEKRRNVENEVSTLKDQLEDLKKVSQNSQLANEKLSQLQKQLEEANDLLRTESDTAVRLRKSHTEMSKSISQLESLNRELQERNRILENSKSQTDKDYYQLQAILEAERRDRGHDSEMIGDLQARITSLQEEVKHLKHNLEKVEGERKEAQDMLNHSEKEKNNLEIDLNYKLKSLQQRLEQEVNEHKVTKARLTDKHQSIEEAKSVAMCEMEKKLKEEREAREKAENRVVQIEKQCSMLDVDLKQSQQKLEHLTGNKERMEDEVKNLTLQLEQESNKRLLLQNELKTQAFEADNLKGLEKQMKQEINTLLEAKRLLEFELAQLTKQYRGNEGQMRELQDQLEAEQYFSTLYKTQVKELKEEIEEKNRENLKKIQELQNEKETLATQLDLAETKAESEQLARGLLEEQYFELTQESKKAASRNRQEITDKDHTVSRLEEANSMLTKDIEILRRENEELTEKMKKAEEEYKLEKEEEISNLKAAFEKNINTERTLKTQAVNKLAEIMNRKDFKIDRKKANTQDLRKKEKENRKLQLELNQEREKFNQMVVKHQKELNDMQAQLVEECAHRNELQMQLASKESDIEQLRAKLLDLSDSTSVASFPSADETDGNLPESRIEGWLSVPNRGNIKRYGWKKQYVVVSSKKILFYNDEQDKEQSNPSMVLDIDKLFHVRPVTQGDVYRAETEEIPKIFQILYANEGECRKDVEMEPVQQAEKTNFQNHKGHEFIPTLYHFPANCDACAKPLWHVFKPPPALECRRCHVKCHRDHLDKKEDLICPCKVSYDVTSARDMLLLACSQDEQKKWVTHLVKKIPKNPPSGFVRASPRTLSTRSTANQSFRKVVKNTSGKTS

[20] = biological target: each individual kinase of the panel (Homo sapiens, UniProt Q14012); details: for % Activity: CaMKI(h)
[21] = biological target: each individual kinase of the panel (Homo sapiens, UniProt Q15303); details: for % Activity: ErbB4(h)
[22] = biological target: each individual kinase of the panel (Homo sapiens, UniProt Q15349); details: for % Activity: Rsk3(h)
[23] = biological target: each individual kinase of the panel (Homo sapiens, UniProt Q86V86); details: for % Activity: Pim-3(h)
[24] = biological target: each individual kinase of the panel (Homo sapiens, UniProt Q92630); details: for % Activity: DYRK2(h)
[25] = biological target: each individual kinase of the panel (Homo sapiens, UniProt Q9H2X6); details: for % Activity: HIPK2(h)
[26] = biological target: each individual kinase of the panel (Homo sapiens, UniProt Q9NYY3); details: for % Activity: Snk(h)
[27] = biological target: each individual kinase of the panel (Homo sapiens, UniProt Q9UEE5); details: for % Activity: DRAK1(h)
[28] = biological target: each individual kinase of the panel (Homo sapiens, UniProt P07333)
[29] = biological target: each individual kinase of the panel (Homo sapiens, UniProt P49137)

Clc1ccccc1Nc1nc2c(-c3nnc[nH]3)cccc2c2cnccc12 [A]
% Activity [1]: 108%
% Activity [2]: 51%
% Activity [3]: 111%
% Activity [4]: 37%
% Activity [5]: 84%
% Activity [6]: 75%
% Activity [7]: 43%
% Activity [8]: 100%
% Activity [9]: 17%
% Activity [10]: 97%
% Activity [11]: 98%
% Activity [12]: 43%
% Activity [13]: 24%
% Activity [14]: 99%
% Activity [15]: 87%
% Activity [16]: 17%
% Activity [17]: 38%
% Activity [18]: 44%
% Activity [19]: 94%
% Activity [20]: 90%
% Activity [21]: 77%
% Activity [22]: 7%
% Activity [23]: 12%
% Activity [24]: −4%
% Activity [25]: −1%
% Activity [26]: 79%
% Activity [27]: 75%

NC(=O)c1cccc2c1nc(Nc1cccc(Cl)c1)c1ccncc12 [B]
% Activity [1]: 91%
% Activity [2]: 65%
% Activity [3]: 101%
% Activity [4]: 18%
% Activity [5]: 94%
% Activity ([28]; Fms(h)): 42%
% Activity [6]: 75%
% Activity [7]: 73%
% Activity [8]: 93%
% Activity [9]: 15%
% Activity [10]: 100%
% Activity [11]: 90%
% Activity [12]: 75%
% Activity [13]: 2%
% Activity [14]: 101%
% Activity ([29]; MAPKAP-K2(h)): 104%
% Activity [15]: 105%
% Activity [16]: 63%
% Activity [17]: 39%
% Activity [18]: 80%
% Activity [19]: 97%
% Activity [20]: 62%
% Activity [21]: 77%
% Activity [22]: 40%
% Activity [23]: 65%
% Activity [24]: 5%
% Activity [25]: 2%
% Activity [26]: 82%
% Activity [27]: 15%

C#Cc1cccc(Nc2nc3cc(C(=O)O)ccc3c3cncnc23)c1 [drawing 1135]
CHK1 percentage of activity [1]: 1%
MSK2 percentage of activity [2]: 44%
EGFR percentage of activity [3]: −23%
CDK1/cyclinB percentage of activity [4]: 48%
FES percentage of activity [5]: −39%
CSF1R percentage of activity [28]: −74%
RET percentage of activity [7]: 14%
FGFR1 percentage of activity [8]: −3%
PDGFRA (D842V) percentage of activity [9]: −9%
AKT1 percentage of activity [11]: −4%
VEGFR2 percentage of activity [12]: 33%
FLT3(D835Y) percentage of activity [13]: 83%
mTOR percentage of activity [14]: 15%
MAPKAPK2 percentage of activity [29]: −7%
EPHB4 percentage of activity [15]: −44%
CK1 gamma 2 percentage of activity [16]: −7%
MER percentage of activity [17]: 54%
MST1 percentage of activity [18]: 4%
ROCK-I percentage of activity [19]: 3%
CAMK1 percentage of activity [20]: −4%
ERBB4 percentage of activity [21]: −26%
PIM3 percentage of activity [23]: 13%
DYRK2 percentage of activity [24]: 50%
PLK2 percentage of activity [26]: −17%
DRAK1 percentage of activity [27]: 38%

C#Cc1cccc(Nc2nc3cc(C(=O)O)ccc3c3cnccc23)c1 [drawing 1137]
CHK1 percentage of activity [1]: 13%
MSK2 percentage of activity [2]: 41%
EGFR percentage of activity [3]: 24%
CDK1/cyclinB percentage of activity [4]: 84%
FES percentage of activity [5]: 1%
CSF1R percentage of activity [28]: −12%
LYN percentage of activity [6]: 20%
RET percentage of activity [7]: 35%
FGFR1 percentage of activity [8]: 23%
PDGFRA (D842V) percentage of activity [9]: 78%
PKA percentage of activity [10]: −9%
AKT1 percentage of activity [11]: 7%
VEGFR2 percentage of activity [12]: 55%
FLT3(D835Y) percentage of activity [13]: 97%
MAPKAPK2 percentage of activity [29]: −12%
EPHB4 percentage of activity [15]: −8%
CK1 gamma 2 percentage of activity [16]: 35%
MER percentage of activity [17]: 86%
MST1 percentage of activity [18]: −3%
ROCK-I percentage of activity [19]: 12%
CAMK1 percentage of activity [20]: 1%
ERBB4 percentage of activity [21]: 17%
RPS6KA2 percentage of activity [22]: 59%
PIM3 percentage of activity [23]: −2%
DYRK2 percentage of activity [24]: 55%
HIPK2 percentage of activity [25]: 96%
PLK2 percentage of activity [26]: 30%
DRAK1 percentage of activity [27]: 65%

NC(=O)c1ccc2c(c1)nc(Nc1cccc(Cl)c1)c1ccncc12 [drawing 1138]
CHK1 percentage of activity [1]: −1%
MSK2 percentage of activity [2]: 9%
EGFR percentage of activity [3]: 15%
CDK1/cyclinB percentage of activity [4]: 63%
FES percentage of activity [5]: −2%
CSF1R percentage of activity [28]: 52%
LYN percentage of activity [6]: 16%
FGFR1 percentage of activity [8]: 17%
PDGFRA (D842V) percentage of activity [9]: 64%
PKA percentage of activity [10]: −1%
AKT1 percentage of activity [11]: 7%
VEGFR2 percentage of activity [12]: 15%
FLT3(D835Y) percentage of activity [13]: 99%
MAPKAPK2 percentage of activity [29]: −2%
EPHB4 percentage of activity [15]: −16%
CK1 gamma 2 percentage of activity [16]: −5%
MER percentage of activity [17]: 62%
MST1 percentage of activity [18]: 15%
ROCK-I percentage of activity [19]: 11%
CAMK1 percentage of activity [20]: 4%
ERBB4 percentage of activity [21]: 33%
DYRK2 percentage of activity [24]: 82%
HIPK2 percentage of activity [25]: 89%
PLK2 percentage of activity [26]: 9%
DRAK1 percentage of activity [27]: −5%
